Experiments:
Test in all cases: Large panel kinase profiling
Assay type in all cases: biochemical
Details in all cases: 1 μM test article, 1 mM ATP
CDK16/T = target: T1, CDK16/T (Homo sapiens, UniProt Q00536)
T1 construct: AssayQuant Technologies, Inc. (ran the panel)
Description: (§1) Large panel kinase profiling was performed at AssayQuant Technologies, Inc. 260 Cedar Hill Street, Marlborough, Mass. 01752 using the PhosphoSens® CSox-Sensor platform using 1 μM test article concentration and 1 mM ATP concentration (www.assayquant.com). Reactions were run in Corning, half-area 96-well, white flat round bottom polystyrene NBS microplates (Cat. #3642) after sealing using optically-clear adhesive film (TopSealA-Plus plate seal, PerkinElmer), applied with either a roller or a paddle to eliminate evaporation and resulting drift. The standard total reaction volume was 50 μL. All experiments were ran at 30° C. to control for fluctuations in ambient temperature. Plates were read from the top in kinetic mode (readings taken every 1 min), monitoring fluorescence intensity with filters using Ex 360 nm and Em 485 nm and a band width of 40 and 20 nm, respectively, and a gain of 80. Data analysis was performed using either Graphpad Prism or Gene Data Screener software.

CSF1R/FMS = target: T2, CSF1R/FMS (Homo sapiens, UniProt P07333)
T2 construct: AssayQuant Technologies, Inc. (service laboratory)
T2 sequence (P07333 20-972): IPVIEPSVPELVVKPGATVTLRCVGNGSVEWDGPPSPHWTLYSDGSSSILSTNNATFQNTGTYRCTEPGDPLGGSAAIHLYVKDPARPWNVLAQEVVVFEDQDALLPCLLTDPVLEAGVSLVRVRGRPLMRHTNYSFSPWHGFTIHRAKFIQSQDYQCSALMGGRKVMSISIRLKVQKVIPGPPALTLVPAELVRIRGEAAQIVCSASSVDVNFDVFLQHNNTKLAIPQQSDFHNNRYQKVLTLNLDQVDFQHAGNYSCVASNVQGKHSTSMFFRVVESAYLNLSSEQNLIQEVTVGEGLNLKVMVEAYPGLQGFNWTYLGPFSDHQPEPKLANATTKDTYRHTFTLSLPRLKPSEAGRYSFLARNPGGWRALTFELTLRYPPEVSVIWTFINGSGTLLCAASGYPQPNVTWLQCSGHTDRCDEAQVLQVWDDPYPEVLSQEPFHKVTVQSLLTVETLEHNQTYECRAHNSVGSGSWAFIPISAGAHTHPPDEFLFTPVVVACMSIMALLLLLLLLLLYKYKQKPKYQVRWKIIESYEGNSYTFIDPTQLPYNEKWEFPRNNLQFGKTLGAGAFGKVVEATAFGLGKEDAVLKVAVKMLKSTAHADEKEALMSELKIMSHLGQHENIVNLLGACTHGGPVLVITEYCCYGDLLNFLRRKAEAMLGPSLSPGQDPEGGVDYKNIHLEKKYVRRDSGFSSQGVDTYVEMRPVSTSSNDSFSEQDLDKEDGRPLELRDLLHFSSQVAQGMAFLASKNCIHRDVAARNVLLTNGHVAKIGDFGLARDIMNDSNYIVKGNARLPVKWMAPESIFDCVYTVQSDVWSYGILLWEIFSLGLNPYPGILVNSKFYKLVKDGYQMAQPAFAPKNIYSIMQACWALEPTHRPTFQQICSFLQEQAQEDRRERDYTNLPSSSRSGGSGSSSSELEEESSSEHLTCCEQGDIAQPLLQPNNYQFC
Description: as §1

EIF2AK3/PEK = target: T3, EIF2AK3/PEK (Homo sapiens, UniProt Q9NZJ5)
T3 sequence (Q9NZJ5 30-1116): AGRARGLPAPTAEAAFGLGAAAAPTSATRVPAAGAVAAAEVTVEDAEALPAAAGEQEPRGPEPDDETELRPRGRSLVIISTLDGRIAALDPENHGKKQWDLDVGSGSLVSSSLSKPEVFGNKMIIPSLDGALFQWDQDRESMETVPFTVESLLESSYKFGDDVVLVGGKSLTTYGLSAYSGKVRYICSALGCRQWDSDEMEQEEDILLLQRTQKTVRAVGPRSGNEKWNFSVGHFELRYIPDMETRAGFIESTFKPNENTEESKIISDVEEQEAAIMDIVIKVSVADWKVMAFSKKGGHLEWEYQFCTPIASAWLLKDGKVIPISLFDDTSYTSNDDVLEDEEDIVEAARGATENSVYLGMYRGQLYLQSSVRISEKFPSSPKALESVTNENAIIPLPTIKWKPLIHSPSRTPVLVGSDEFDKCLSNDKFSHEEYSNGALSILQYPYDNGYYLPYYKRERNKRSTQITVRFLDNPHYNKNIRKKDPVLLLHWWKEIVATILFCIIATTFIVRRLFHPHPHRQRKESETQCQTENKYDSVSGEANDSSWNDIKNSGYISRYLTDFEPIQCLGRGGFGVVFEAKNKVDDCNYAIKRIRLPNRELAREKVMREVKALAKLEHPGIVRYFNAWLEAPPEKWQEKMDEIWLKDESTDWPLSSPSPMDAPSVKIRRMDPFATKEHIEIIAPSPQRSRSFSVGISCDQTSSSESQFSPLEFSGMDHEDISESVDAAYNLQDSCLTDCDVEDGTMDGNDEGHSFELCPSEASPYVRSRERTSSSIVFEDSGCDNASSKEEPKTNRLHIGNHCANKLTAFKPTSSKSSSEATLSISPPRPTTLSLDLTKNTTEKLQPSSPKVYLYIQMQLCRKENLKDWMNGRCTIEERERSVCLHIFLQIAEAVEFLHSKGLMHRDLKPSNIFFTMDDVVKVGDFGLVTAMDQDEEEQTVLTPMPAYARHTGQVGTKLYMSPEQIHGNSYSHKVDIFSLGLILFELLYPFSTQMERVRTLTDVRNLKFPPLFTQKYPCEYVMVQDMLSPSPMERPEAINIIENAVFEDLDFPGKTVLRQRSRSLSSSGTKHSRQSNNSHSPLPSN
Description: as §1

HIPK2 = target: T4, HIPK2 (Homo sapiens, UniProt Q9H2X6)
T4 construct: AssayQuant Technologies, Inc. (service provider)
T4 sequence (Q9H2X6 whole entry, species assumed): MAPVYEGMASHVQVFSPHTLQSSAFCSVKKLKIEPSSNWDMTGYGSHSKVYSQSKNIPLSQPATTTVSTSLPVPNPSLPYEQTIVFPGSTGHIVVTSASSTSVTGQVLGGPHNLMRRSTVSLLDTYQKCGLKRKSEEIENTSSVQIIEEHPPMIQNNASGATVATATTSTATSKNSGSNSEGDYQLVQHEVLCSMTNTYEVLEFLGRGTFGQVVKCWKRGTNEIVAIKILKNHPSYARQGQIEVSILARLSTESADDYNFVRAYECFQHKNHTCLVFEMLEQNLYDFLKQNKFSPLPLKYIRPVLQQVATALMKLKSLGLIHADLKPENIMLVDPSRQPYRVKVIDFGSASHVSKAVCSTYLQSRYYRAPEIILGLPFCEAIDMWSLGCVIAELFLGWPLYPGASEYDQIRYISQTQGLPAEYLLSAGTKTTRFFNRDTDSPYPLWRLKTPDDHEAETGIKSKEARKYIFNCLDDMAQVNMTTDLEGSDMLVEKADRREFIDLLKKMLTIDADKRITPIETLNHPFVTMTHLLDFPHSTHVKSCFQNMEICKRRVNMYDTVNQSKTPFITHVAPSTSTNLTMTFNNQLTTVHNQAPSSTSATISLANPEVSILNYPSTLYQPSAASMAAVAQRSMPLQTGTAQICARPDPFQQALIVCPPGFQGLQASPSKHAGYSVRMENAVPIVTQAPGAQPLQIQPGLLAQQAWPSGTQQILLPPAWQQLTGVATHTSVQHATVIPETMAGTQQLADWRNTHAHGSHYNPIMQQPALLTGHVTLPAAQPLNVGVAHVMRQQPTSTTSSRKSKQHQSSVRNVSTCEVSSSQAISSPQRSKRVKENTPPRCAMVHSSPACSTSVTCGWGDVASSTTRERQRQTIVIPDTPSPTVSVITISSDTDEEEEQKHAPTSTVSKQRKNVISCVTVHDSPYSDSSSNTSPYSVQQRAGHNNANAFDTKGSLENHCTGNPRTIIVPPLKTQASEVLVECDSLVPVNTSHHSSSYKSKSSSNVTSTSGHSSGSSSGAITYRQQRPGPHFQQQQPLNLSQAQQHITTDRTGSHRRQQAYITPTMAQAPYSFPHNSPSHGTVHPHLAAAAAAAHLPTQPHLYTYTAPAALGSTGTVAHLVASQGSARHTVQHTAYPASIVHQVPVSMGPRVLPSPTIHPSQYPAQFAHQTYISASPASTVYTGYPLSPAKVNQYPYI
Description: as §1

LYNB = LYNB (Homo sapiens, UniProt P07948)
Description: as §1

MAPK8/JNK1 = target: T5, MAPK8/JNK1 (Homo sapiens, UniProt P45983)
T5 construct: AssayQuant Technologies, Inc. (service provider)
T5 sequence (P45983 whole entry): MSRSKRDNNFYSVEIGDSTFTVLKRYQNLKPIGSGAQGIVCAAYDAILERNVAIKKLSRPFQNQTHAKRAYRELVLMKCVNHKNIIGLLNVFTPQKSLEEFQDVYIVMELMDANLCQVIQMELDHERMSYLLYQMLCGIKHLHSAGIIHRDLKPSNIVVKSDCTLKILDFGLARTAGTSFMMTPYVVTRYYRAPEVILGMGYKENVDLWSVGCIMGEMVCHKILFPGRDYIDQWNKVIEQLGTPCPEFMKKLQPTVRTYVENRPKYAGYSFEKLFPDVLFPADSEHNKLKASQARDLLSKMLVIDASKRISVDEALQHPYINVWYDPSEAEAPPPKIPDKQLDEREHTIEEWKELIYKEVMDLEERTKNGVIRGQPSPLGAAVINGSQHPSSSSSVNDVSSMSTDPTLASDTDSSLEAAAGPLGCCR
Description: as §1

NTRK3/TRKC = NTRK3/TRKC (Homo sapiens, UniProt Q16288)
Sequence of NTRK3/TRKC (Q16288 32-839): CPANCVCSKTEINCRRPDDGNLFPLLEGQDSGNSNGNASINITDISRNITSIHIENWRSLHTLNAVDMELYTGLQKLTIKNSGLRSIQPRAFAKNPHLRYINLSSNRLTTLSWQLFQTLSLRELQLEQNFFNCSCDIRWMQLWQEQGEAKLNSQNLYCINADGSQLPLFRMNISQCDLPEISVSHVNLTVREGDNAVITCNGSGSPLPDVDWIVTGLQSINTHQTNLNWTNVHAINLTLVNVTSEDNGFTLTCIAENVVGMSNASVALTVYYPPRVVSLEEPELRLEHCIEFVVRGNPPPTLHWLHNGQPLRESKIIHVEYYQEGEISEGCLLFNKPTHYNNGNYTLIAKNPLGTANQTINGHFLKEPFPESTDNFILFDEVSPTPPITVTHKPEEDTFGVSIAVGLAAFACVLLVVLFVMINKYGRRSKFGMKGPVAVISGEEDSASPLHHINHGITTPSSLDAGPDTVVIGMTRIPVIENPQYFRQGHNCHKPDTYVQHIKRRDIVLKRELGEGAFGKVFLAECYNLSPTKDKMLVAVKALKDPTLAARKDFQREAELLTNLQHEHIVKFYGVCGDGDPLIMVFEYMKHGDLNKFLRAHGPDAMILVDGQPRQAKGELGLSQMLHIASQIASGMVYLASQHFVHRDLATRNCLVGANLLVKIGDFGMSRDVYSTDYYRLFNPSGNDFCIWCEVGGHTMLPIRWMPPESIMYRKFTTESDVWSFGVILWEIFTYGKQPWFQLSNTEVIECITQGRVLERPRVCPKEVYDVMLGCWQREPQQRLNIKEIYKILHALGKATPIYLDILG
Description: as §1

PRKCB2/PKCB2 = PRKCB2/PKCB2 (Homo sapiens, UniProt P05771)
Sequence of PRKCB2/PKCB2 (P05771 1-673 isoform P05771-2): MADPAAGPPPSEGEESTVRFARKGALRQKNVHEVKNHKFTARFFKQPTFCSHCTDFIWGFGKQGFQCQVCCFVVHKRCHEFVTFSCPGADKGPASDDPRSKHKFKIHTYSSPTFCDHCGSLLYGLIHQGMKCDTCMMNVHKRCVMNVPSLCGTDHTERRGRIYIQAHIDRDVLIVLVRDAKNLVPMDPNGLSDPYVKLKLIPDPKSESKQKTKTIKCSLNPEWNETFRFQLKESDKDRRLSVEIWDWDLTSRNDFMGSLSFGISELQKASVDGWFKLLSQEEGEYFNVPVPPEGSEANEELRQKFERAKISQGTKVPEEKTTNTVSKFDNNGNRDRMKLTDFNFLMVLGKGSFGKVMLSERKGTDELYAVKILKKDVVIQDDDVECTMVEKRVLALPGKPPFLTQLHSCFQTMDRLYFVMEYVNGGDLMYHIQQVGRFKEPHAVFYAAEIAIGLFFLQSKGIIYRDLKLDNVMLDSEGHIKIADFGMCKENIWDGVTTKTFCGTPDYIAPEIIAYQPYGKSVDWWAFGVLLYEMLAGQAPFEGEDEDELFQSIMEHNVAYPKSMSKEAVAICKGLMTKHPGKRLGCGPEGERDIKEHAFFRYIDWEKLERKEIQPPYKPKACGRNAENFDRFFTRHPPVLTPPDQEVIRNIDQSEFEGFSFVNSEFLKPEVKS
Description: as §1

ROCK2 = ROCK2 (Homo sapiens, UniProt O75116)
Description: as §1

SGK1 = target: T6, SGK1 (Homo sapiens, UniProt O00141)
T6 construct: AssayQuant Technologies, Inc. (contract assay)
T6 sequence (O00141 1-431): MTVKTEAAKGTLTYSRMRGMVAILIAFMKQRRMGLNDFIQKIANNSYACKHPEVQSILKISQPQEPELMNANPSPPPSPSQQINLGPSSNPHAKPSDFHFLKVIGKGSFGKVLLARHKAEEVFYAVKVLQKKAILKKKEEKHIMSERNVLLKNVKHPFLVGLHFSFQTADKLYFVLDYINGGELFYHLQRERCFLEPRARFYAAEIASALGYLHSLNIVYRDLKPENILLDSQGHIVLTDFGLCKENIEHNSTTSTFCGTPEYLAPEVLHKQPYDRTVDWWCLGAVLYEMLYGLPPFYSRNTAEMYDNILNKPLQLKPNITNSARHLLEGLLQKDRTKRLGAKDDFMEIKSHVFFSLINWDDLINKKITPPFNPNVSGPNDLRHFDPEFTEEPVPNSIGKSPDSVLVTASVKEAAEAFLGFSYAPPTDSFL
Description: as §1

T1 sequence (Q00536 whole entry, species assumed): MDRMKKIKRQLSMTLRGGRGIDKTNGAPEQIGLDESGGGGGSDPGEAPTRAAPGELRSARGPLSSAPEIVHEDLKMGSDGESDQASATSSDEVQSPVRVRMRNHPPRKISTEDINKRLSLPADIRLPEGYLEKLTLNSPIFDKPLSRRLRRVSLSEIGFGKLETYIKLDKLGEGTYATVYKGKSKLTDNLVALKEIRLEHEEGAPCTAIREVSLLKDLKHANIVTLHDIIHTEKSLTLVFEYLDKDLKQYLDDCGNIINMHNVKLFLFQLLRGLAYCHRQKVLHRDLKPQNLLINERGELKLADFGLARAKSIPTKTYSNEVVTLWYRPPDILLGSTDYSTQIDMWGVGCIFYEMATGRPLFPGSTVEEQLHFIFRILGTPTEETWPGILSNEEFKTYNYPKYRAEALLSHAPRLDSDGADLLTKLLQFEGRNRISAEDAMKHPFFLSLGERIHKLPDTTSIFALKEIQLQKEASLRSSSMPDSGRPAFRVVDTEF
T1 sequence (Q8ND76 whole entry partner, species assumed): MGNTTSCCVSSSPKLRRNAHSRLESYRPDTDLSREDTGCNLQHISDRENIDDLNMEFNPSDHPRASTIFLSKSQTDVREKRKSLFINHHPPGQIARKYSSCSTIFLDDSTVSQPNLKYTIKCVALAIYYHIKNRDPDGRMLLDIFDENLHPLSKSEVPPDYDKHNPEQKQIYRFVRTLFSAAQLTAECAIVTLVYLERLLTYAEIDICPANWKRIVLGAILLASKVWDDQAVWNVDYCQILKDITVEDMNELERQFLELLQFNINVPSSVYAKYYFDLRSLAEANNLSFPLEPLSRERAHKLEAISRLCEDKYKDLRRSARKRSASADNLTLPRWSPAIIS

Row | Structure (SMILES) | inhibition at 1 µM (CDK16/T) [%] | inhibition at 1 µM (CSF1R/FMS) [%] | inhibition at 1 µM (EIF2AK3/PEK) [%] | inhibition at 1 µM (HIPK2) [%] | inhibition at 1 µM (LYNB) [%] | inhibition at 1 µM (MAPK8/JNK1) [%] | inhibition at 1 µM (NTRK3/TRKC) [%] | inhibition at 1 µM (PRKCB2/PKCB2) [%] | inhibition at 1 µM (ROCK2) [%] | inhibition at 1 µM (SGK1) [%]
1 | C=CC(=O)N1CCCC(c2c(F)cc(C(N)=O)c3[nH]c4c(c23)CCCCC4)C1 (single isomer, unassigned) [Compound 5-6] | 19.7 | 21.3 | -9.2 | -18.6 | 8.9 | -0.6 | -25.7 | -32.3 | -28.3 | 4.3
2 | C=CC(=O)N1CCC[C@@H](c2c(F)cc(C(N)=O)c3[nH]c4c(c23)CC2(CC4)CC2)C1 [Compound 6-2, (S)-5-(1-acryloylpiperidin-3-yl)-6-fluoro-1,2,4,9-tetrahydrospiro[carbazole-3,1′-cyclopropane]-8-carboxamide] | -3.1 | 24.9 | -18.5 | -55.4 | 28.9 | 21.7 | 5.7 | -9.4 | 0.8 | 10.7
3 | C=CC(=O)N1CCC[C@@H](c2c(F)cc(C(N)=O)c3[nH]c4c(c23)CCC4)C1 [Compound 10-2, (S)-8-(1-acryloylpiperidin-3-yl)-7-fluoro-1,2,3,4-tetrahydrocyclo-penta[b]indole-5-carboxamide] | -8.1 | 20.2 | -3.5 | -66.1 | 23.2 | 13.6 | 2.9 | -28.2 | 21.2 | 14.8

From US20220009920A1 (GB005, Inc., priority 2020, published 2022)
